Where two headings read alike, the source gives them in different places.
How the values were obtained:
[1] = test system: small cell lung cancer cells NCI-H1581; assay: Tumor cell proliferation, CCK-8 kit; type: cell-based; conditions: Homo sapiens, 72 hours
[2] = test system: human bladder transplanted cell carcinoma cell SW780; assay: cells; conditions: SW780, 72 h, read-out: IC50(nM)/SW780
Description: For the FGFR3 subtype, the human bladder transplanted cell carcinoma cell SW780 (purchased from the Chinese Academy of Sciences, Shanghai Institute of Life Sciences, Cell Resource Center) was used, and cultivated according to the corresponding conditions.
The experimental assay can be briefly described as follows: the tested compound was first dissolved in DMSO to prepare a stock solution, then it was subjected to gradient dilution with corresponding cell culture medium to prepare a test sample. The final concentration of the compound is in the range of 30 μM to 0.01 nM. The tumor cells in logarithmic growth phase were inoculated into 96-well cell culture plates at appropriate densities, after the cells were incubated overnight under the corresponding conditions, the tested compound samples were added and the cells were cultured for 72 hours. After completion of the culture, a suitable volume of CCK-8 test solution was added to each well and the cells were incubated at 37° C. for 1 to 4 hours. […] The percentage inhibition rate of the compound at each concentration point was calculated by comparing with the absorbance values of the control group, and then non-linear regression analysis was carried out using logarithmic concentration of the compounds-inhibition rates in the GraphPad Prism 5 software, to obtain the IC50 values for inhibiting cell proliferation of the compounds.

[3] = Pharmacokinetic tests on mice, intragastric, plasma LC/MS/MS; type: in vivo; conditions: ICR mice, 100 mg/kg
Method: ICR mice were used as the test animals, and the compound of Example 1 was administrated intragastrically to mice to determine the drug concentration in plasma at different points by LC/MS/MS method. The pharmacokinetic properties of the compound of the present invention were studied in mice.
The compound of Example 1 (50.12 mg) was weighed, added with 5.012 mL of 0.5% sodium carboxymethylcellulose (CMC-Na) (0.5% Tween-20, 0.9% BeOH), vortexed for 3 minutes until a homogeneous suspension was formed;
9 healthy adult ICR mice, after an overnight fast, were administrated intragastrically at a dosage of 100 mg/kg, at a volume of […].
Blood samples were taken from orbital vein (0.08 mL) at pre administration and at 15 minutes, 30 minutes, 1 hour, 2 hours, 4 hours, 8 hours, 12 hours, 24 hours post administration. The samples were stored in heparinized test tubes and centrifuged for 10 minutes at 5500r/min, The plasma were stored at −30° C., and the mice were fed after 4 hours of administration.
10 μL of sample was taken, 100 μl of acetonitrile solution of IS (5 ng·mL^−1 verapamil and 50 ng·mL^−1 glibenclamide were contained) was added, the mixture was vortexed for 10 minutes and centrifuged for 18 minutes at 3,700r/min, After that, 40 μL of supernatant was added with 120 μL of water and vortexed for 10 minutes, and an aliquot of 10 μL of the supernatant of the mixture was analyzed in a LC-MS/MS system.
The tested compounds were administrated intragastrically to determine the content of the tested compounds in plasma of mice at different time points by LC-MS/MS method.

[4] = test system: small cell lung cancer cells DMS114; assay: Tumor cell proliferation, CCK-8 kit; type: cell-based; conditions: Homo sapiens, DMS-114, 72 hours
[5] = test system: human gastric cancer cells KATOIII; assay: Tumor cell proliferation, CCK-8 kit; type: cell-based; conditions: KATO III, 72 hours
[6] = test system: human gastric cancer cells SNU-16; assay: Tumor cell proliferation, CCK-8 kit; type: cell-based; conditions: SNU-16 cells, 72 hours
FGFR4 = FGFR4 (Homo sapiens (Human), UniProt P22455); conditions: read-out: IC50(nM) FGFR4; recombinant human FGFR4, ATP at Km
Sequence of FGFR4 (P22455 22-802): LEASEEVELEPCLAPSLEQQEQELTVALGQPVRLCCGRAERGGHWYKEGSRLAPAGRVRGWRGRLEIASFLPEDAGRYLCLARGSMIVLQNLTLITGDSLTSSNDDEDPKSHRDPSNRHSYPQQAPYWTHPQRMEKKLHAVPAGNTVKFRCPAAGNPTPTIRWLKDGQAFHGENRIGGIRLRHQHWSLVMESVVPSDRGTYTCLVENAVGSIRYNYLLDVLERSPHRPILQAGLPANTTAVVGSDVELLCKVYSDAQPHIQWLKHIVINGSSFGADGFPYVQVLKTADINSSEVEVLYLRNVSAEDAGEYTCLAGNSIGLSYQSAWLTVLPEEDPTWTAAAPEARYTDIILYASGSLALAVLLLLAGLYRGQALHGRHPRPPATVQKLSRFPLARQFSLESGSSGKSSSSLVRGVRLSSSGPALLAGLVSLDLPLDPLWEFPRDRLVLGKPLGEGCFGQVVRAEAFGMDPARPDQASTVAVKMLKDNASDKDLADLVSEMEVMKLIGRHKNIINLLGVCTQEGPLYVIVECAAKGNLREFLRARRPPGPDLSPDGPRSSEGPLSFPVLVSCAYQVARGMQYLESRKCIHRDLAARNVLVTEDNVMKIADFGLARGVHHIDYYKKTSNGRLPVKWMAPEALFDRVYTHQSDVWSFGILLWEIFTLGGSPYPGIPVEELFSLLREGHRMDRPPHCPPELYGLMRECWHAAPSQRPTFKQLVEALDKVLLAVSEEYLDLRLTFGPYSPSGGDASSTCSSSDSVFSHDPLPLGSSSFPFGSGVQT
Method: This assay used Cisbio's HTRF®KinEASE-TK tyrosine kinase kit (Cat. No. 62TK0PEB), through determining the degree of phosphorylation of the biotinylated polypeptide substrate, the determination was carried out by time-resolved fluorescence energy resonance transfer method (TF-FRET).
For detailed assay, please refer to the kit instructions, the experimental procedure was summarized as follows: the compound of the present invention was first dissolved in DMSO, the solution was subjected to gradient dilution with the buffer solution provided in the kit so that the range of the final concentration of the compound to be tested in the reaction system was 10 μM to 0.1 nM, the final concentration of DMSO was 0.1%. The concentration of the tested adenosine triphosphate (ATP) was the pre-determined Km value corresponding to the ATP of each FGFR subtype. […] Subsequently, an antiphosphorylated tyrosine antibody coupled with a compound containing europium-based element and streptavidin coupled with a modified allophycocyanin XL665 were added to the reaction and the mixture was incubated continuously for 1 hour at room temperature.

FGFR3 = FGFR3 (Homo sapiens (Human), UniProt P22607); assay: FGFR kinase activity, HTRF KinEASE-TK (TF-FRET); type: biochemical; conditions: recombinant human FGFR3, ATP at Km
Sequence of FGFR3 (P22607 23-806): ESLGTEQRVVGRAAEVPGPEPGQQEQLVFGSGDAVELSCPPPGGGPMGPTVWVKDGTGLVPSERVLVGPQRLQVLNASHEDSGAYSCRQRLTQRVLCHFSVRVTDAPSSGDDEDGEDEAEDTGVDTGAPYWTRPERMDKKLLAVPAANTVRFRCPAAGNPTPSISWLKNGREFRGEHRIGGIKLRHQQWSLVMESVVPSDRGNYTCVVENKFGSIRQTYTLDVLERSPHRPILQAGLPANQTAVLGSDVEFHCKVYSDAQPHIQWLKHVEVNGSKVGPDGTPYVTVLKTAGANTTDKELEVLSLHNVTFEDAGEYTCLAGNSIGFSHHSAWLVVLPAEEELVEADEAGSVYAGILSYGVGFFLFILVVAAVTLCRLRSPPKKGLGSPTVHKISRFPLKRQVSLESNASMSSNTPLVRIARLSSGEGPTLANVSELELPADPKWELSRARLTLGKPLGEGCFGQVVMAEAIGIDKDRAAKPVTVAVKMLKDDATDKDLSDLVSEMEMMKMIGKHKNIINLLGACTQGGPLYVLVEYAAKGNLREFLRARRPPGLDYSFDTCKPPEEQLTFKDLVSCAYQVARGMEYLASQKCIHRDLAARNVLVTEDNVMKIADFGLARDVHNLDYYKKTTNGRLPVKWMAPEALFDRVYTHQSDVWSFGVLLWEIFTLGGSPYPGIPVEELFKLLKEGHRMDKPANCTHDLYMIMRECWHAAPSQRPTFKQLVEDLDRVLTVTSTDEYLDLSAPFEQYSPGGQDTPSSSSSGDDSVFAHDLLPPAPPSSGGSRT

[7] = Pharmacokinetic tests on rats, intragastric, plasma LC/MS/MS; type: in vivo; conditions: SD rats; for AUC(0-inf) / half-life / Cmax / MRT: male, rat, plasma, po; for AUC(0-inf): read-out: Curve area AUC0-∞; for half-life: read-out: Half-life period T½ (converted); for Cmax: read-out: Plasma concentration Cmax; for MRT: read-out: Residence time MRT
Method: SD rats were used as the test animals, and the compounds of Examples 12 and 17 were administrated intragastrically to the rats to determine the drug concentration in plasma at different points by LC/MS/MS method. The pharmacokinetic properties of the compounds of the present invention in rats were studied.
The compound of Example 12 (3.5 mg) was weighed, dissolved in 2.2 mL of ethanol, vortexed for 1 minute and sonicated for 1 minute, after that, dissolved in 3.3 mL of PEG400, vortexed for 1 minute and sonicated for 1 minute, and then added with 5.5 mL of deionized water, vortexed for 1 minute. The final concentration of the solution was 0.3 mg/mL, and it was a colorless clear liquid (the pH of the final solution was about 7).
The compound of Example 17 (7.12 mg) was weighed and 7.12 mL of 0.5% sodium carboxymethylcellulose (CMC-Na) (0.5% Tween-20, 0.9% BeOH) was added, vortexed for 3 minutes until a homogeneous suspension was formed;
6 healthy adult SD male rats, after an overnight fast, were administrated intragastrically at the dosage of 3 mg/kg and 5 mg/kg, respectively.
Blood samples were taken from laryngeal vein (0.15 mL), at pre administration and at 15 minutes, 30 minutes, 1 hour, 2 hours, 4 hours, 8 hours, 12 hours, 24 hours, 36 hours and 48 hours post administration, and the samples were stored in heparinized test tubes, and centrifuged for 10 minutes at 5500 r/min. The plasma was stored at −30° C., and the rats were fed 4 hours after administration.
20 μL of sample was taken, 400 μl of acetonitrile solution of IS (5 ng·mL^−1 verapamil and 50 ng·mL^−1 glibenclamide were contained) was added, The mixture was vortexed for 1 minute, and then centrifuged for 8 minutes at 13,000r/min. After that, 70 μL of supernatant was added with 70 μL of water and vortexed for 10 minutes, and an aliquot of 10 μL of the supernatant of the mixture was analyzed in a LC-MS/MS system.
The tested compounds were administrated intragastrically to determine the content of the tested compounds in plasma of rats at different time points by LC-MS/MS method.

Nc1c(C(=O)c2cc3ccccc3[nH]2)cnn1-c1ccc2[nH]c(C3CC3)nc2c1 [Example 1, (5-amino-1-(2-cyclopropyl-1H-benzo[d]imidazol-5-yl)-1H-pyrazol-4-yl)(1H-indol-2-yl)methanone]
IC50 [1]: 45 nM
IC50 [2]: 11 nM
F % (oral availability) [3]: 63%
pharmacokinetic properties (in words) [3]: good pharmacokinetic properties
AUC(0-t) ([3]; mouse, plasma, po, read-out: Curve area AUC0-t): 150 µg·h/mL
Cmax ([3]; mouse, plasma, po, read-out: Plasma concentration Cmax): 17400 ng/mL
IC50 [4]: 89 nM
IC50 [5]: 9 nM
IC50 [6]: 4 nM

COC(=O)c1nc2cc(-n3ncc(C(=O)c4cc5ccccc5[nH]4)c3N)ccc2[nH]1 [Example 7, Methyl 5-(5-amino-4-(1H-indole-2-carbonyl)-1H-pyrazol-1-yl)-1H-benzo[d]imidazole-2-carboxylate]
IC50 (FGFR4): > 10000 nM
IC50 (FGFR3): > 100 nM

Nc1c(C(=O)c2cc3cc(F)ccc3[nH]2)cnn1-c1ccc2[nH]c(C3CC3)nc2c1 [Example 11, (5-amino-1-(2-cyclopropyl-1H-benzo[d]imidazol-5-yl)-1H-pyrazol-4-yl)(5-fluoro-1H-indol-2-yl)methanone]
IC50 [1]: 119 nM
IC50 [5]: 15 nM

Nc1c(C(=O)c2cc3ccc(F)cc3[nH]2)cnn1-c1ccc2[nH]c(C3CC3)nc2c1 [Example 12, (5-Amino-1-(2-cyclopropyl-1H-benzo[d]imidazol-5-yl)-1H-pyrazol-4-yl)(6-fluoro-1H-indol-2-yl)methanone]
pharmacokinetic properties (in words) [7]: good pharmacokinetic properties
AUC(0-inf) ([7]; 3 mg/kg): 80400 ± 24600 ng·h/mL
half-life ([7]; 3 mg/kg): 322.8 ± 3 min
Cmax ([7]; 3 mg/kg): 5230 ± 1510 ng/mL
MRT ([7]; 3 mg/kg): 8.18 ± 0.19 h
IC50 [1]: 78 nM
IC50 [4]: 150 nM
IC50 [5]: 1.1 nM
IC50 [6]: 5 nM

CN1CC=C(c2ccc3cc(C(=O)c4cnn(-c5ccc6[nH]c(C7CC7)nc6c5)c4N)[nH]c3c2)CC1 [Example 14, (5-Amino-1-(2-cyclopropyl-1H-benzo[d]imidazol-5-yl)-1H-pyrazol-4-yl)(6-(1-methyl-1,2,3,6-tetrahydropyrid-4-yl)-1H-indol-2-yl)methanone]
IC50 [1]: 20 nM
IC50 [4]: 43 nM
IC50 [5]: 4.5 nM
IC50 [6]: 5.6 nM

CCn1cc(-c2ccc3cc(C(=O)c4cnn(-c5ccc6[nH]c(C7CC7)nc6c5)c4N)[nH]c3c2)cn1 [Example 16, (5-Amino-1-(2-cyclopropyl-1H-benzo[d]imidazol-5-yl)-1H-pyrazol-4-yl)(6-(1-ethyl-1H-pyrazol-4-yl)-1H-indol-2-yl)methanone]
IC50 [1]: 40 nM
IC50 [2]: 56 nM
IC50 [4]: 56 nM
IC50 [5]: 11 nM

N#Cc1ccc2cc(C(=O)c3cnn(-c4ccc5[nH]c(C6CC6)nc5c4)c3N)[nH]c2c1 [Example 17, 2-(5-Amino-1-(2-cyclopropyl-1H-benzo[d]imidazol-5-yl)-1H-pyrazole-4-carbonyl)-1H-indole-6-carbonitrile]
pharmacokinetic properties (in words) [7]: good pharmacokinetic properties
AUC(0-inf) ([7]; 5 mg/kg): 10300 ± 3490 ng·h/mL
half-life ([7]; 5 mg/kg): 396 ± 192 min
Cmax ([7]; 5 mg/kg): 1040 ± 271 ng/mL
MRT ([7]; 5 mg/kg): 9.4 ± 5.2 h
IC50 [1]: 61 nM
IC50 [2]: 106 nM
IC50 [4]: 129 nM
IC50 [5]: 9.8 nM
